According to a melting point compilation (Tetko et al.; mined from patent text by program, amines drawn as free bases though some values may be those of a salt):

Row | SMILES | melting point [°C]
1 | CC(O)(CN)c1ccc(Oc2ccc3c(c2)S(=O)(=O)NC2CCCN32)cc1 (stereo unspecified) | 76 to 78
2 | O=C(NCC(=O)N1[C@@H](c2ccccc2)CC[C@H]1c1ccccc1)Nc1cccc(C(=O)O)c1 | 255
3 | CCCC1(CCC)c2cc(-c3nc4cc(C)ccc4o3)ccc2-c2cc(OC)c(-c3nc4cc(C)ccc4o3)cc21 | 240 to 248
4 | Cc1ccc(CC2CCN(C(=O)c3nc4ccc(O)cc4[nH]3)CC2)cc1 | 93
5 | CC(=O)NCCOC(=O)C(Oc1cccc(C(F)(F)F)c1)c1ccc(Cl)cc1 (stereo unspecified) | 93 to 95
6 | Cc1cc(C2=NN(C(=O)N[C@H](C)c3ccccc3)[C@H](C)Cc3cc4c(cc32)OCO4)ccc1[N+](=O)[O-] | 202 to 205
7 | COc1ccc(CN(c2ccc(F)c(Cl)c2)c2ncnc3cc(OCCCN4CCOCC4)c([N+](=O)[O-])cc23)cc1OC | 129 to 132
8 | O=C(Nc1ccc(Oc2ccnc(NC3CCCC3)n2)c2ccccc12)c1cc(F)cc(N2CCOCC2)c1 | 119 to 120
9 | CN1C(C(=O)Nc2cccc(F)c2)=C(O)c2ccc3ccccc3c2S1(=O)=O | 278 to 279
10 | Nc1nc(N)c(CCCc2cccc3ccccc23)c(N)n1 | 181 to 183
11 | CC(C)(C)OC(=O)Nc1cc(N2CCOCC2)c(I)cc1[N+](=O)[O-] | 43 to 44
12 | Brc1cn2c(Br)cnc2c(N2CCCCC2)n1 | 72
13 | OCCCOc1c(Cl)cc(OCC=C(Cl)Cl)cc1Cl | 56.6
14 | CC1=C(C#N)C(c2cccc3ncc(Cc4ccccc4)cc23)C(C(=O)OC(C)C)=C(C)N1 (stereo unspecified) | 188 to 190
15 | CCc1ccc(Oc2cc3c(cc2Cl)C=C(C(=O)O)C(C(F)(F)F)O3)cc1 (stereo unspecified) | 196
16 | CCOC(=O)c1c(CN2CCCCC2)nc2cc(OCC)c(OCC)cc2c1-c1ccc(OC)c(OC)c1 | 154 to 155
17 | O=C(Oc1ccccc1)C(=O)Oc1ccc2c(c1)C(c1ccccc1)C(=O)O2 (stereo unspecified) | 134
18 | NC(=O)c1ccc(F)c2c1OCC(N(CCCc1c[nH]c3c(F)cc(F)cc13)CC1CC1)C2 (stereo unspecified) | 124
19 | C[Si](C)(C)CC(O)(Cn1cncn1)c1ccccc1 (stereo unspecified) | 86 to 87
20 | CC(C)c1cc(-c2ccc3c(c2)OCO3)[nH]c(=O)c1C#N | 266 to 268
21 | CN(CCOC1CCCCO1)c1cc(NC(=O)OC(C)(C)C)c([N+](=O)[O-])cc1C#Cc1ccc(F)cc1 (racemic) | 134
22 | O=C1C=CC(c2ccccc2)C2(c3ccccc3)CN(C(=O)Cc3ccccc3)CC12 (racemic) | 188
23 | Cc1nc2cccc(CNC(=O)OC(C)(C)C)c2c(=O)n1C1CCC(=O)NC1=O (stereo unspecified) | 206 to 208
24 | CCCCCCCCOc1ccc(-c2ccc(O)cc2)cc1 | 154
25 | CN1C(=O)C(c2ccc(OC(F)F)cc2)(c2ccc(F)c(CCCC#N)c2)N=C1N (stereo unspecified) | 65 to 70
26 | C=C(C)CNc1cc(C)nc2cn[nH]c12 | 161 to 164
27 | CC=C1c2ccccc2CC(NO)c2ccccc21 (stereo unspecified) | 121 to 124

Row | SMILES | melting point [°C]
28 | CCOC1OC(O)C(F)(F)C(F)(F)C1(F)F (stereo unspecified) | 84 to 86
29 | O=C(O)C(=O)c1ccc(OCCOC23CC4CC(CC(C4)C2)C3)cc1 | 107 to 109
30 | CN=C1CCCc2scnc21 | 233 to 235
31 | CCCCCCCCCCC[C@@H](O)CC(=O)OC | 42 to 43
32 | COC(=O)c1ccc(-c2ccc(NC(=O)c3ccc(OC)c(CCCN(C)C)c3)cc2)cc1 | 188 to 192
33 | O=C(NC1N=C(c2ccccc2F)c2ccccc2NC1=O)c1ccccc1 (racemic) | 243 to 244
34 | CC(C)(C)OC(=O)NC(C)(COCc1ccccc1)C(=O)O (stereo unspecified) | 112 to 114
35 | CN1CCC(c2cccc3c2C[C@H](NC(=O)c2ccc(C(F)(F)F)cc2)CC3)CC1 | 163 to 166
36 | Cn1ncc(C(=O)N2CCOCC2)c1C(=O)Nc1ccc2nc(-c3ccccc3)nn2c1 | 183 to 185
37 | O=C(OCCN1CCN(CCN2CCOCC2)CC1)c1ccc(O)cc1 | 176 to 178
38 | COc1nc2cccnc2n1-c1ccc(-c2nc(-c3nccs3)cn2-c2ccc(C)nc2)cc1 | 190 to 192
39 | FC(F)(F)c1cccc(N2CCN(CCCCNc3cc(-c4ccccc4)ccn3)CC2)c1 | 120
40 | COc1ccc(C2=NN(C3Cc4ccccc4C3)C(=O)[C@H]3CC=CC[C@@H]23)cc1OC (relative stereo) | 163 to 164
41 | OCC1Cc2c(ccc3c(-c4ccccc4)noc23)O1 (stereo unspecified) | 107 to 109
42 | CSC(=NC(=O)COC(C)=O)N(C)N=Cc1ccccc1 | 115 to 117
43 | OCC[C@@H]1CCCC[C@@H]1c1ccccc1 (relative stereo) | 48 to 50
44 | CC(=O)Nc1ccc(-c2cc(C(=O)c3ccc(C)cc3)sc2N2CCOCC2)cc1 | 168
45 | O=C1C(Br)CCN1c1cccc(C(F)(F)F)c1 (stereo unspecified) | 79 to 83
46 | CN(C)C1CCN(c2nc(NCc3ccccc3)c3ncnc(NCc4ccccc4)c3n2)CC1 | 143 to 145
47 | CN1CCN(CC(=O)N2c3ccccc3C(=S)Nc3cccnc32)CC1 | 240 to 241
48 | CCN1c2ccc(Cl)cc2C=C(C(=O)O)C1C(F)(F)F (stereo unspecified) | 201 to 202
49 | Cc1c(Cl)nnc(Cl)c1C | 80 to 82
50 | CCCN(CCCCNC(=O)N1CCc2cc(OC)c(OC)cc2C1)C1CCc2ncsc2C1 (stereo unspecified) | 106
51 | NN1CN=Cc2c(NC3OC(CO)C(O)C3O)ncnc21 (stereo unspecified) | 209 to 214
52 | O=c1c(Oc2ccccc2)nc2ccccc2n1-c1ccc(Cl)cc1 | 239 to 241
53 | CCOC(=O)OC1=C(c2cc(C)ccc2C)C(=O)NC1CC1CCS(=NC#N)CC1 (stereo unspecified) | 103 to 105

Other lines, results leading:

Row | melting point [°C] | SMILES
54 | 120 to 132 | CSc1nc(Cc2ccccc2[N+](=O)[O-])n[nH]1
55 | 247 to 249 | Cc1nccn1-c1cnc2[nH]cc(C(=O)C(C)(C)C)c2n1
56 | 232 to 234 | COc1ccc(C2Sc3c(ccc4ccccc34)NC(=O)C2O)cc1 (stereo unspecified)
57 | 175 to 177 | CC(Oc1ncn(-c2ccc(C(F)(F)F)cc2)n1)C(=O)NC1CC1 (stereo unspecified)
58 | 150 to 151 | COC(=O)C1=C2CCC(c3ccccc3)CN2CCC1=O (stereo unspecified)
59 | 140 to 142 | CCOC(=O)c1cn(CC)c2sc(C)cc2c1=O
60 | 169 to 170 | COC(=O)c1nn(-c2cccc(C(F)(F)F)c2)cc(OC)c1=O
61 | 274 to 275 | COc1cccc2c(NCc3ccccc3C)nc(N)nc12
62 | 241 to 244 | COc1c(OC(C)=O)ccc2cc[nH]c12
63 | 101 to 103 | COC(=O)c1cc(I)c(C(F)(F)F)cc1N
64 | 55 to 56 | CCOC(=O)c1oc2cc(Br)ccc2c1C
65 | 221 to 222 | CC(CCNC1=Nc2ccc(S(=O)(=O)N(C)C)c3cccc1c23)n1ccnc1 (stereo unspecified)
66 | 163 to 164 | CC1(C)C(=O)c2c(cc(OCC(=O)O)c(Cl)c2Cl)C1c1ccccc1 (stereo unspecified)
67 | 230 to 235 | CCOc1cc2ncc3c(N)nc(-c4ccc(Br)cc4)cc3c2cc1OCC
68 | 200 to 202 | COc1cc2c(Nc3ccc(Cl)cc3F)ncnc2cc1OCCOc1ccncc1
69 | 222 to 224 | NC1=NS(=O)N=C1NCCCOc1cccc2c(N3CCOCC3)nccc12 (stereo unspecified)
70 | 155 | Cc1ccc(S(=O)(=O)OCC2COc3ccc([N+](=O)[O-])c(N)c3O2)cc1 (stereo unspecified)
71 | 166 to 170 | COC(=O)c1cn(C)c2cc(OC)c(C(F)(F)F)cc12
72 | 296 | NC(=O)c1ccc2[nH]c(=O)oc2c1
73 | 153 | COc1cc(CS(=O)c2ccc(O)cc2)cc(OC)c1OC (stereo unspecified)
74 | 274 to 275 | Oc1ccnc2ccc(Cl)cc12
75 | 176 to 178 | Cc1ccc(C(=O)c2ccc(CC(=O)O)n2C)c(Cl)c1
76 | 104 to 106 | COc1ccc(C2Cc3cc(OC)c(OC)c(OC)c3C2=O)cc1 (stereo unspecified)
77 | 188 | COc1nc(C)nc(NC(=O)NS(=O)(=O)c2cc([N+](=O)[O-])cs2)n1

Row | melting point [°C] | SMILES
78 | 119 to 121 | COc1ccc(-n2nc(CBr)cc2-c2ccc(C)cc2)cc1
79 | 185 to 186 | Cc1ccc2c(c1)oc1c(C(N)=O)nn(-c3ccc(Cl)cc3Cl)c12
80 | 162 to 164 | C(=C\c1nc2ccccc2n1-c1ccccn1)/c1ccoc1
81 | 204 to 206 | COc1nccc2cc(S(N)(=O)=O)oc12
82 | 73 to 74 | CCc1nc(-c2ccnnc2)no1
83 | 113 to 114 | CCCc1c(SC(=O)N(C)C)ccc2c(=O)cc(C(=O)OCC)oc12
84 | 125 to 126 | CC(=O)C1(c2cccc(OCc3ccc4c(ccc(=O)n4C)c3)c2)CCOCC1
85 | 213 to 215 | C=CCOCc1ccc([N+](=O)[O-])cc1Nc1nccc(-c2cccnc2)n1
86 | 155 to 157 | CCOC(=O)C(=O)c1csc(NC(=S)NC(=O)c2ccccc2)n1
87 | 157 | NC1CSC(c2cccs2)CNC1=O (stereo unspecified)
88 | 151 to 153 | CC(=O)c1cc(Oc2ccccc2)c(NS(C)(=O)=O)cc1O
89 | 160 to 162 | CS(=O)(=O)CCC(=O)Nc1ccc(OCC(O)CO)cc1 (stereo unspecified)
90 | 190 to 193 | COc1ccc(Cn2cnc(N)c3nc(C(C)C)nc2-3)cc1OC1CCCC1
91 | 143 to 146 | COc1c(C=CC(=O)O)cccc1Oc1ccccc1C
92 | 101 to 102 | Cc1occc1COC(C)CN(O)C(N)=O (stereo unspecified)
93 | 215 to 220 | COc1cccc2sc(NN)nc12
94 | 86 to 87 | c1ccc(-c2cc3ccccc3o2)nc1
95 | 95 to 97 | COC(=O)NCCc1cccc(C(=O)C=CN(C)C)c1
96 | 146 | Cc1ncn(Nc2cccc(Cl)c2)c1C
97 | 56 to 58 | COc1cc(C=C2C(=O)CCc3cc(Cl)ccc32)c([N+](=O)[O-])cc1OC
98 | 176 to 177 | CC1CC(=O)NN=C1c1ccc(NCCN)c(N)c1 (stereo unspecified)
99 | 209 to 210 | CC(C)(C)OC(=O)NCc1ccc2cc(C(N)=O)[nH]c2c1
100 | 120 to 122 | COC(=O)C1CN(Cc2ccccc2)c2ccccc2CN1S(=O)(=O)c1ccc(OC)cc1 (stereo unspecified)
101 | 229 to 230 | CS(=O)(=O)c1ccc(-n2ncc(C#N)c2-c2ccc(-c3ccco3)cc2)cc1
